{"source": "patent US11559528B2", "about": "“BACE1 inhibition for the treatment of cancer” (The Cleveland Clinic Foundation, priority 2019, dated 2023)", "key": {"[1]": {"system": "iPSC-derived M2 macrophages", "assay": "Fluorescent phagocytosis screening assay, iPSC-derived M2 macrophages against glioma cells", "type": "cell-based, human"}, "[2]": {"system": "GBM xenografts derived from T4121 GSCs", "assay": "Intracranial GBM xenografts from T4121 glioma stem cells", "type": "in vivo, mouse", "from_the_text": "FIG. 4, panels A-F. BACE1 Inhibition by MK-8931 Converts M2 TAMs into M1 Macrophages to Phagocytize Glioma Cells in GBM Xenografts. (A and B) Density analysis of M2 TAMs by immunofluorescent staining of the M2 TAM marker (CD163 or FIZZ1) and the total TAM marker IBA1 and in GBM xenografts treated with MK-8931 or vehicle control. GBM xenografts were established by implantation of glioma stem cells (T4121) through intracranial injection. […] Representative immunofluorescent images (A) showing M2 TAMs (CD163^+ or FIZZ1^+, in red) and total TAMs (IBA1^+, in green) in the MK-8931-treated or control GBM xenografts. […] (C and D) Density analysis of M1 TAMs by immunofluorescent staining of the M TAM marker (HLA-DR or CD11c) and the total TAM marker IBA1 and in GBM xenografts treated with MK-8931 or vehicle control. […] Representative immunofluorescent images (C) showing M1 TAMs (HLA-DR^+ or CD11c^+, in red) and total TAMs (IBA1^+, in green) in the MK-8931-treated or control GBM xenografts. […] (E and F) In vivo phagocytosis of TAMs against human glioma cells in the MK-8931-treated or control GBM xenografts. […] Representative images (E) showing in vivo TAM phagocytosis as inclusion bodies of glioma cells (TRA-1-85^+, in red) with TAMs (IBA1, in green) in the MK-8931 treated GBM xenografts but not in the control tumors. […] Scale bar represents 30 μM. Ctl: Control; MK: MK-8931."}, "[3]": {"system": "intracranial xenografts of lung ADC (H1002)", "assay": "Intracranial xenografts of lung adenocarcinoma (H1002) brain metastases", "type": "in vivo, mouse", "details": "30 mg/kg once daily oral", "quoted_text": "The lung cancer cells (H1002, ADC) expressing luciferase were transplanted into mouse brains to establish intracranial xenografts of lung ADC. […] Data are shown as mean±SEM. * p<0.05, *** p<0.001, and NS (not significant)≥0.05; Student's t-test.\nThe lung ADC cancer cells (H1002) expressing luciferase were transplanted into mouse brains to establish intracranial xenografts of lung ADC. […] IVIS was performed twice per week to monitor tumor growth. When humane endpoints occur, mouse was anesthetized and brains with xenografts were harvested for further analyses. […] Frozen xenograft sections were immunostained with a specific antibody against cleaved caspase-3 (in green) and counterstained with DAPI (in blue). […] Frozen xenograft sections were immunostained with a specific antibody against cleaved GLUT1 (in green) and counterstained with DAPI (in blue). […] Frozen xenograft sections were immunostained with a specific antibody against Ki-67 (in green) and counterstained with DAPI (in blue). […] Data are shown as mean±SEM of at least 6 images from 3-5 mice. * p<0.05 and ** p<0.01; Student's t-test.\nIn brief, GSCs (T4121 and T387) or lung ADC cells (H1002) expressing luciferase were injected into the right cerebral cortex at a depth of 3.5 mm. Seven days after the implantation, IVIS was performed twice per week to monitor the tumor growth under the Spectrum CT Imaging System (PerkinElmer) before and after treatment. […] Mouse brains bearing the tumors were collected for immunofluorescent, histochemical and histological analyses.\n(§3) Primary antibodies were added to the sections or cells and incubated overnight at 4° C. […] After the incubation of the primary antibodies, the sections or cells were washed three times with cold PBS for five minutes each and then incubated with the secondary antibodies for one hour at room temperature. […] Finally, images were captured by a fluorescence microscopy (Leica DM4000) and further analyzed with ImageJ software."}, "[4]": {"system": "GSCs (T387, T4121, and U87)", "assay": "Cell viability (cell titer) assay on glioma stem cells", "type": "cell-based, human", "details": "MK-8931 10 and 50 μg/mL, three days", "procedure": "(§1) FIG. 16, panels A-E. MK-8931 Treatment Had Little Effect on Glioma Stem Cells. (A and B) Tumorsphere formation assay to examine the effect of MK-8931 treatment on glioma stem cells (GSCs). Representative images (A) of tumorsphere derived from T4121 GSCs treated with MK-8931 (50 μg/mL) or the vehicle control. Quantifications (B) show the number and size of tumorsphere derived from T4121 GSCs treated with MK-8931 (50 μg/mL) or the control. Data are shown as mean±SEM. NS (not significant)≥0.05, Student's t-test. […] GAPDH was blotted as loading control. (D) Immunoblot analysis of the apoptotic markers cleaved-PARP and cleaved caspase-3 in GSCs (T387 and T4121) treated with MK-8931 (50 μg/mL), etoposide (Etop, 1 μM), or the vehicle control for different time as indicated. GAPDH was blotted as loading control. […] Ctl: Control; Etop: Etoposide. (E) Cell viability assay to examine the effect of MK-8931 treatment on proliferation of glioma stem cells. […] Data are shown as mean±SEM. NS (not significant)≥0.05, Student's t-test.\nCell viability assay was performed by using a Cell Titer-Glo Luminescent Cell Viability Assay Kit according to the manufacturer's instruction (Promega, G7571). For this assay, 1,000 cells were seeded on one well of a 96-well plate in 100 μL of stem cell medium. […] Plate was loaded on the VICTOR Multilabel Plate Reader (PerkinElmer) and the readout were recorded and analyzed. […]"}, "[5]": {"system": "GSCs (T387 and T4121)", "assay": "Immunoblot of apoptotic markers in glioma stem cells", "type": "cell-based, human", "details": "MK-8931 50 μg/mL, different times", "procedure": "as §1"}, "[6]": {"system": "H1002 and H146 lung cancer cells", "assay": "Cell titer viability assay on lung cancer cells", "type": "cell-based, human", "details": "indicated concentrations, 72 hours, n=3", "procedure": "(§2) (A) Effects of BACE1 inhibitors on lung cancer cell proliferation. H1002 and H146 lung cancer cells were treated with the indicated concentrations of the BACE1 inhibitor AZD3293, MK-8931, AZD3839, or PF-06751979 (PF) for 72 hours. Cell viability was assessed by cell titer assay (n=3). (B-D) A preclinical trial of MK-8931 for lung cancer treatment in xenograft models. H1002 lung cancer cells (5×106) were transplanted into mouse right flank through subcutaneous injection to establish subcutaneous lung cancer xenografts. […] Tumors dissected from mice of each group were photographed (C) and weighed (D). […] Data are shown as mean SEM. p **<0.01, Student's t-test."}, "[7]": {"system": "H1002 lung cancer cells", "assay": "Subcutaneous lung cancer xenografts (H1002)", "type": "in vivo, mouse", "details": "50 mg/kg once daily oral gavage, from two weeks after inoculation; p<0.01", "procedure": "as §2"}, "[8]": {"system": "HepG2 liver cancer cells", "assay": "Subcutaneous liver cancer xenografts (HepG2)", "type": "in vivo, mouse", "details": "50 mg/kg once daily oral gavage, from two weeks after inoculation; p<0.05", "from_the_text": "(A-C) A preclinical trial of MK-8931 for liver cancer treatment xenograft models. HepG2 liver cancer cells (5×106) were transplanted into mouse right flank through subcutaneous injection to establish subcutaneous liver cancer xenografts. […] Tumors dissected from mice of each group were photographed (B) and weighed (C)."}, "[9]": {"details": "cited from earlier work"}, "[10]": {"system": "GBM xenografts derived from T4121 GSCs", "assay": "MK-8931 combined with low dose irradiation in T4121 GBM xenografts", "quoted_text": "Glioma stem cells (T4121 GSCs) expressing luciferase were transplanted into mouse brains through intracranial injection to establish orthotopic GBM xenografts. Irradiation (2 Gy) was performed on Day 8 and Day 16. […] Representative bioluminescent images (B) at day 7 (before treatment) and day 15 (treatment for one week) are shown. […] Data are shown as mean±SEM. * p<0.05, ** p<0.01, * ** p<0.001, and NS (not significant)≥0.05 as indicated; Student's t-test. Ctl: Control; IR: Irradiation. […] Data are shown as mean±SEM. Log-rank analysis was used to assess the significance. Significances were shown as indicated. Ctl: Control; IR: irradiation.\nFrozen xenograft sections were co-immunostained with specific antibodies against IBA1 (in green) and CD163 (in red) or HLA-DR (in red) and counterstained with DAPI (in blue). Representative immunofluorescent images showing the staining of IBA1 and the M2 TAM marker CD163 (A) or IBA1 and the M1 TAM marker HLA-DR (B) in the GBM xenografts. […] (D and E). […] Frozen xenografts sections were immunostained with a specific antibody against cleaved caspase-3 (in green) and counterstained with DAPI (in blue). […] Data are shown as mean±SEM from at least 5 images of 3-5 mice. * p<0.05 and ** p<0.01; Student's t-test. Scale bar represents 3 μM. Ctl: Control; IR: Irradiation; CC-3: Cleaved caspase-3.\nSeven days after the implantation, IVIS was performed twice per week to monitor the tumor growth under the Spectrum CT Imaging System (PerkinElmer) before and after treatment. […] Mouse brains bearing the tumors were collected for immunofluorescent, histochemical and histological analyses.\nIrradiation (IR) was performed with the Pantek X-ray irradiator (once per week) at low dose (2 Gy). To protect the mice and limit the side effect of irradiation, anesthetized mice were covered by a lead plate and only the tumor implantation sites were exposed to the fractioned radiation. Mice were sacrificed at the indicated time points or upon the appearance of the neurological signs. […] Only animals with accidental death (for example, due to infection or intracranial injection) were excluded from the data analysis.\nas §3"}, "[11]": {"details": "30 mg/kg once daily oral gavage two weeks"}, "[12]": {"details": "30 mg/kg once daily oral gavage two weeks, p<0.001"}, "[13]": {"details": "IR 2 Gy on Day 8 and Day 16 plus MK-8931 30 mg/kg once daily oral from Day 9, 30 mg/kg"}}, "note": "Entries after “also recorded” stand apart in the source; their conditions may differ.", "data": [{"smiles": "CN1C(N)=N[C@](C)(c2cc(NC(=O)c3ccc(F)cn3)ccc2F)CS1(=O)=O", "note": "[MK-8931]", "values": [{"measurement": "macrophage phagocytosis against cancer cells", "setting": "[1]", "result": "promotes macrophage phagocytosis against cancer cells"}, {"measurement": "phagocytosis of iPSC-derived macrophages against human glioma cells (inclusion bodies)", "setting": "[1]; MK-8931 50 μg/mL two days, T4121 tdTomato cells co-incubated two hours, p<0.001 vs vehicle", "result": "potently induced phagocytosis of iPSC-derived macrophages"}, {"measurement": "screen of drug libraries and known inhibitors for promoters of macrophage phagocytosis: hit", "setting": "[1]; glioma cells and lung ADC cells", "result": "hits"}, {"measurement": "IBA1+/pSTAT3+ double positive cells (TAMs)", "setting": "[2]; [11]", "result": "significantly reduced STAT3 activating phosphorylation in TAMs"}, {"measurement": "pSTAT3+ cells in xenografts", "setting": "[2]; [11]", "result": "significantly reduced STAT3 activating phosphorylation in GBM xenografts"}, {"measurement": "density of M1 TAMs (HLA-DR+/IBA1+ or CD11c+/IBA1+)", "setting": "[2]; [12]", "result": "significantly increased density of M1 TAMs"}, {"measurement": "density of M2 TAMs (CD163+/IBA1+ or FIZZ1+/IBA1+)", "setting": "[2]; [12]", "result": "significantly reduced density of M2 TAMs"}, {"measurement": "in vivo TAM phagocytosis (inclusion bodies of TRA-1-85+ glioma cells with IBA1+ TAMs)", "setting": "[2]; 30 mg/kg once daily oral gavage, p<0.01", "result": "promoted TAM phagocytosis"}, {"measurement": "tumor growth (mean bioluminescence)", "setting": "[3]; Days 7, 14 and 21", "result": "significantly inhibited tumor growth of lung ADC brain metastases"}, {"measurement": "M1 TAMs (HLA-DR+/IBA1+ cells)", "setting": "[3]; p<0.001", "result": "significantly increased M1 TAMs"}, {"measurement": "M2 TAMs (CD163+/IBA1+ cells)", "setting": "[3]; p<0.001", "result": "significantly reduced M2 TAMs"}, {"measurement": "survival (Kaplan-Meier)", "setting": "[3]; p<0.001 by log-rank", "result": "significantly extended the survival of animals bearing the intracranial lung ADC xenografts"}, {"measurement": "cell proliferation (fraction of Ki-67+ cells)", "setting": "[3]; p<0.01", "result": "significantly reduced cell proliferation"}, {"measurement": "apoptosis (fraction of cleaved caspase-3+ cells)", "setting": "[3]; p<0.05", "result": "significantly augmented apoptosis"}, {"measurement": "in vivo TAM phagocytosis (inclusion bodies)", "setting": "[3]; p<0.05", "result": "significantly increased TAM phagocytosis against human lung ADC cells"}, {"measurement": "vessel density (GLUT1+ cells)", "setting": "[3]; p<0.05", "result": "significantly reduced vessel density"}, {"measurement": "proliferation / cell viability of glioma stem cells (cell titer)", "setting": "[4]", "result": "did not affect"}, {"measurement": "apoptotic markers cleaved-PARP and cleaved caspase-3", "setting": "[5]", "result": "did not induce apoptosis in GSCs in vitro"}, {"measurement": "lung cancer cell proliferation (cell viability)", "setting": "[6]", "result": "suppressed lung cancer cell proliferation"}, {"measurement": "tumor growth (tumor weight)", "setting": "[7]", "result": "markedly inhibited lung tumor growth"}, {"measurement": "tumor growth (tumor weight)", "setting": "[8]", "result": "significantly inhibited liver tumor growth"}, {"measurement": "efficacy in phase 3 AD clinical trials", "setting": "[9]; AD patients", "result": "ineffectiveness in controlling AD progression or improving life quality of AD patients"}, {"measurement": "tolerability / safety in AD clinical trials", "setting": "[9]; patients, Phase I to Phase III", "result": "well-tolerated for patients; also recorded: very safe in the clinical trials for AD treatment; also recorded: well-tolerated in human and showed little toxic effect; also recorded: very safe for patients"}, {"measurement": "survival (Kaplan-Meier), IR plus MK-8931", "setting": "[10]; [13]", "result": "synergized with MK-8931 treatment to extend survival of the tumor-bearing animals; also recorded: longest survival extension among four experimental groups"}, {"measurement": "tumor growth (mean bioluminescence), IR plus MK-8931", "setting": "[10]; [13]", "result": "significantly synergized with MK-8931 treatment to inhibit GBM tumor growth; also recorded: strongest inhibition on GBM growth"}, {"measurement": "TAM subtype (CD163+ M2 vs HLA-DR+ M1), IR plus MK-8931", "setting": "[10]; IR (2×2 Gy) plus MK-8931", "result": "effectively converted M2 TAMs (CD163+) into M1 macrophages (HLA-DR^+)"}, {"measurement": "apoptosis (fraction of cleaved caspase-3+ cells), IR plus MK-8931", "setting": "[10]; IR (2×2 Gy) plus MK-8931 30 mg/kg, mean±SEM", "result": "25.9±3.1", "unit": "%"}, {"measurement": "apoptosis (fraction of cleaved caspase-3+ cells), MK-8931 treatment alone", "setting": "[10]; MK-8931 30 mg/kg alone, mean±SEM", "result": "10.4±0.9", "unit": "%"}]}]}
